Experimental data reported in patent US11708360B2, “N-substituted-dioxocyclobutenylamino-3-hydroxy-picolinamides useful as CCR6 inhibitors” (Pfizer Inc., priority 2018, dated 2023).
Read-outs that look alike come from different tables or passages of the source. Blank lines part the entries; values can stand above or below the compound they belong to.

Key:
CXCR2 [1] = biological target: T1, CXCR2 (Homo sapiens, UniProt P25025); design: host or cells: Path-Hunter HEK293 cells; details: Table 16; data disclosed in WO 2013/061005; β-arrestin recruitment, CXCL8, Path-Hunter HEK293 cells; cited from earlier work
T1 sequence (P25025 1-360): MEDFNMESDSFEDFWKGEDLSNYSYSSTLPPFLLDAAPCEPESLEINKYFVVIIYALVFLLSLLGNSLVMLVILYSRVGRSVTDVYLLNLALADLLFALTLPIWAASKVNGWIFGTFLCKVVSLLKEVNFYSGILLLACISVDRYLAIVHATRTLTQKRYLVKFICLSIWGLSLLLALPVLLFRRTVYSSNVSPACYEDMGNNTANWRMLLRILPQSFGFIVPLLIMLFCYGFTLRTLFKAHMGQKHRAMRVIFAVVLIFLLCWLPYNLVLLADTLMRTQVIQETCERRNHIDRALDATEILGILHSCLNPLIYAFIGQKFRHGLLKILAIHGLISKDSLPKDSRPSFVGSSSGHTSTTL

CXCR2 [2] = biological target: T1, CXCR2; experiment: Human Neutrophil Chemotaxis Assay; type: cell-based; design: Human neutrophils were purified from freshly drawn human whole blood; endogenous in cells; host or cells: primary human neutrophils from fresh whole blood
Procedure: After 30 min, the labeled neutrophils were washed twice in chemotaxis buffer, resuspended as before and used immediately. For the assay, test compounds were tested in a dose-response format to determine IC50. Labeled neutrophils (50 μL) were pre-incubated with diluted test compound (50 μL) for 30 min in a 96-well plate (Greiner). Next, 100 μL of diluted compound was mixed with 100 μL of GROα (Peprotech #300-11, 2 nM) in the bottom portion of the chemotaxis chamber. The top portion (insert) of the chemotaxis system containing the FluoroBlok porous membrane was then assembled together. 50 μL of the pre-incubated neutrophils were added to the FluoroBlok insert (top portion) and chemotaxis measured by the neutrophils ability to migrate through the membrane towards the specific CXCR2 ligand, GROα.
IC50 values for compounds of the present invention (Table 12) were determined by the non-linear regression analysis of dose response curves.

CCR6 = biological target: T2, CCR6 (Homo sapiens, UniProt P51684); experiment: CCR6+ T Cell Chemotaxis Assay; type: cell-based; details: for T Cell Chemotaxis Selectivity: Table 13, T cell chemotaxis compared to neutrophil chemotaxis; for T Cell Chemotaxis Selectivity / R = H, T Cell Chemotaxis Selectivity: NS = not selective for T cell chemotaxis compared to neutrophil chemotaxis
T2 construct: Human CD4+CCR6+CXCR3-T cells were isolated from leukopak from healthy donors; endogenous in cells
T2 sequence (P51684 1-374): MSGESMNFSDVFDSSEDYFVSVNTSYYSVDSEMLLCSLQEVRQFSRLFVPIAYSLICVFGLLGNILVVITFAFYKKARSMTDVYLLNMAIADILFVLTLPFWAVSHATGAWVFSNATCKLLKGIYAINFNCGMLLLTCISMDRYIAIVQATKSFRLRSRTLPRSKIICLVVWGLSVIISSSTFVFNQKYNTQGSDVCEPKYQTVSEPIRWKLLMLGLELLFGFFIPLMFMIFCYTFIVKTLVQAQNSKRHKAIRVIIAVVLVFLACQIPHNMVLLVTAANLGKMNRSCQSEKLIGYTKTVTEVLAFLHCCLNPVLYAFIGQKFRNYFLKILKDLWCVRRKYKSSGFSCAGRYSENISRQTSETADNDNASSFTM
From the text: Human CD4+CCR6+CXCR3-T cells were isolated from leukopak from healthy donors using EasySep™ Human Th17 Cell Enrichment Kit. […] Day 4 post activation, Dynabeads were removed from the culture. The activated T cells were maintained at 1-2×10^6 cells/mL for 15 days by feeding fresh growth media when needed.
For IC50 determination, the top and bottom of the chemotaxis chamber contained the same concentration of compound. DMSO was kept constant at 0.1% (v/v) in all wells. The final concentration of CCL20 (Peprotech 300-29A) in the bottom chamber is 0.5 nM. The fully assembled chemotaxis plate was placed in a cell culture incubator at 37° C., 5% CO2 for 1 h. After incubation, the top filter was removed, followed by a quick freeze of the bottom chamber at −80° C. for 1 h. The migrated cells in the bottom chamber were stained with CyQUANT dye (Life Technologies, C7026) for cell number determination.
IC50 values for compounds of the present invention (Table 11) were determined by the non-linear regression analysis of dose response curves.

[3] = Table 17, WO 2013/061005 comparator compounds, read-out: IC50 (nM) CXCR2 Neutrophil, GROα Chemotaxis
[4] = Table 12, human neutrophils migrating towards the CXCR2 ligand GROα, read-out: IC50
[5] = Table 11, human CD4+CCR6+CXCR3- T cells, CCL20 0.5 nM in bottom chamber, 1 h at 37° C., read-out: IC50
[6] = Table 14, R = H, read-out: R = H, IC50 (nM) CXCR2 Neutrophil, GROα Chemotaxis
[7] = Table 14, R = H, read-out: R = H, IC50 (nM) CCR6 T cell, CCL20 Chemotaxis

IC50 (CXCR2 [2]; [3]): 35.2 nM
Structure (SMILES): Cc1ccc([C@H](Nc2c(Nc3ccc(Cl)c(S(=O)(=O)N(C)C)c3O)c(=O)c2=O)C2(C)COC2)o1 [Example 22 (WO 2013/061005), reference compound]
IC50 (CXCR2 [1]): 31 nM

IC50 (CXCR2 [2]; [3]): 1140 nM
Structure (SMILES): Cc1ccc([C@H](Nc2c(Nc3ccc(Cl)c(C(=O)N4CCN(C)CC4)c3O)c(=O)c2=O)C2(C)COC2)o1 [Example 53, reference compound]
IC50 (CXCR2 [1]): 30 nM

IC50 (CXCR2 [2]; [6]): 12.2 nM
IC50 (CCR6; [7]): 64.5 nM
Structure (SMILES): Cc1nc([C@H](Nc2c(Nc3ccnc(C(=O)N(C)C)c3O)c(=O)c2=O)C2(C)CCCC2)co1 [drawing 181 (R = H), reference compound]

Second part, the compound before the results:

Structure (SMILES): CC(C)N(C)C(=O)c1nccc(Nc2c(N[C@@H](c3nn(C)cc3C#N)C3(C)CCCC3)c(=O)c2=O)c1O [Example 31, (R)-4-((2-(((4-cyano-1-methyl-1H-pyrazol-3-yl)(1-methylcyclopentyl)methyl)amino)-3,4-dioxocyclobut-1-en-1-yl)amino)-3-hydroxy-N-isopropyl-N-methylpicolinamide]
IC50 (CXCR2 [2]; [4]): 2750 nM
IC50 (CCR6; [5]): 45.4 nM
T Cell Chemotaxis Selectivity (CCR6): 60

Structure (SMILES): Cc1nc([C@H](Nc2c(Nc3ccnc(C(=O)N(C)C)c3O)c(=O)c2=O)C2(C)CCCC2)c(C)s1 [Example 32, (R)-4-((2-(((2,5-Dimethylthiazol-4-yl)(1-methylcyclopentyl)-methyl)amino)-3,4-dioxocyclobut-1-en-1-yl)amino)-3-hydroxy-N,N-dimethylpicolinamide]
IC50 (CXCR2 [2]; [4]): 332 nM
IC50 (CXCR2 [2]; Table 14, R = CH3, read-out: R = CH3, IC50 (nM) CXCR2 Neutrophil, GROα Chemotaxis): 332 nM
IC50 (CCR6; [5]): 2.7 nM
T Cell Chemotaxis Selectivity (CCR6): 123
R = CH3, T Cell Chemotaxis Selectivity (CCR6; Table 14, R = CH3): 123
IC50 (CCR6; Table 14, R = CH3, read-out: R = CH3, IC50 (nM) CCR6 T cell, CCL20 Chemotaxis): 2.7 nM

Structure (SMILES): COc1sc(C)nc1[C@H](Nc1c(Nc2ccnc(C(=O)N(C)C)c2O)c(=O)c1=O)C1(C)CCCC1 [Example 33, (R)-3-Hydroxy-4-((2-(((5-methoxy-2-methylthiazol-4-yl)(1-methylcyclopentyl)methyl)amino)-3,4-dioxocyclobut-1-en-1-yl)amino)-N,N-dimethylpicolinamide]
IC50 (CXCR2 [2]; [4]): 69.9 nM
IC50 (CCR6; [5]): 4.4 nM
T Cell Chemotaxis Selectivity (CCR6): 16

Structure (SMILES): CCc1cn(C)nc1[C@H](Nc1c(Nc2ccnc(C(=O)N(C)C)c2O)c(=O)c1=O)[C@]1(C)CC(F)(F)CO1 [Example 37, 4-((2-(((S)-((S)-4,4-Difluoro-2-methyltetrahydrofuran-2-yl) (4-ethyl-1-methyl-1H-pyrazol-3-yl)methyl)amino)-3,4-dioxocyclobut-1-en-1-yl)amino)-3-hydroxy-N,N-dimethylpicolinamide]
IC50 (CXCR2 [2]; [4]): 3630 nM
IC50 (CCR6; [5]): 5.2 nM
T Cell Chemotaxis Selectivity (CCR6): 698

Structure (SMILES): Cc1nc([C@H](Nc2c(Nc3ccnc(C(=O)N(C)C)c3O)c(=O)c2=O)[C@]2(C)CC(F)(F)CO2)c(C)s1 [Example 38, 4-((2-(((S)-((S)-4,4-Difluoro-2-methyltetrahydrofuran-2-yl) (2,5-dimethylthiazol-4-yl)methyl)amino)-3,4-dioxocyclobut-1-en-1-yl)amino)-3-hydroxy-N,N-dimethylpicolinamide]
IC50 (CXCR2 [2]; [4]): 3460 nM
IC50 (CCR6; [5]): 12.6 nM
T Cell Chemotaxis Selectivity (CCR6): 274

Structure (SMILES): CC[C@@H](Nc1c(Nc2ccnc(C(=O)N(C)C)c2O)c(=O)c1=O)c1cccc(C2CC2)c1 [Example 120, reference compound]
IC50 (CXCR2 [2]; Table 15, WO 2010/131145 comparator compounds, read-out: IC50 (nM) CXCR2 Neutrophil, GROα Chemotaxis): 5.7 nM
IC50 (CCR6; Table 15, WO 2010/131145 comparator compounds, read-out: IC50 (nM) CCR6 T cell, CCL20 Chemotaxis): 388 nM

Structure (SMILES): CN(C)C(=O)c1nccc(Nc2c(NC(c3ccn(C)n3)C3(C)CCCC3)c(=O)c2=O)c1O (centres unmarked) [drawing 179 (R = H), reference compound]
IC50 (CXCR2 [2]; [6]): 42.1 nM
R = H, T Cell Chemotaxis Selectivity (CCR6; Table 14, R = H): 2.2
IC50 (CCR6; [7]): 19.2 nM

Structure (SMILES): Cc1nc([C@H](Nc2c(Nc3ccnc(C(=O)N(C)C)c3O)c(=O)c2=O)C2(C)CCCC2)cs1 [drawing 180 (R = H), reference compound]
IC50 (CXCR2 [2]; [6]): 346 nM
R = H, T Cell Chemotaxis Selectivity (CCR6; Table 14, R = H): 10.8
IC50 (CCR6; [7]): 32.1 nM
